Target: T1, ERR1 (also known as ERR-α or ERR-1) (Homo sapiens, UniProt P11474)
T1 sequence (P11474 193-421 limits assumed): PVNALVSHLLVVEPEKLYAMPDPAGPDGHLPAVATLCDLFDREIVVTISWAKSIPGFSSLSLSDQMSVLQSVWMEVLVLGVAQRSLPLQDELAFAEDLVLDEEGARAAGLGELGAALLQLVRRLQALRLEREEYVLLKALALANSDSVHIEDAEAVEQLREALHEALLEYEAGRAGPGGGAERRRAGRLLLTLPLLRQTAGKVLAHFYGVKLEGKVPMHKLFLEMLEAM
Test: TR-FRET assay: disruption of co-activator peptide (GST-hSRC2) binding to 6His-tagged ERR1 LBD
Format: biochemical
Details: 6 nM ERR1LBD, 6 nM GST-SRC-2 peptide, 25° C., 4-18 hours; average of 3 independent experiments
Method: Time-Resolved Fluorescence Resonance Energy Transfer (TR-FRET) experiments were performed to examine the functional response of ERR1 (also known as ERR-α or ERR-1) ligands. The TR-FRET assay described herein relied on the conformation of ERR1 for binding to a co-activator peptide: when a test compound binds to ERR1 and alters its conformation, it can disrupt the binding of the co-activator peptide. The components of this homogeneous secondary assay included: the ^6His-tagged-ERR1LBD, a GST-labeled-hSRC2 co-activator polypeptide and a fluorescent donor/acceptor pair from CIS bio international htrf/bioassays (Bedford, Mass.) using both an α-GST Europium Cryptate (Eu) label and an α^6His-XL665 (allophycocyanin) fluorophore.
For TR-FRET measurements, the reaction was buffered in 25 mM Tris pH 8, 2.5 mM Hepes, 20 mM KCl, 1 mM DTT, and 0.05 mg/mL BSA (-lipids). The final concentrations of reagents were 6 nM of ERR1LBD, 6 nM GST-SRC-2 peptide, 30 nM Eu cryptate, and 7.5 nM XL665. Reactions were allowed to reach equilibrium at 25° C. for 4-18 hours before collecting data on the Analyst from LJL Biosystems (Molecular Devices Sunnyvale, Calif.). As a time-resolved method, the samples were excited at […] and emission was collected for 1 ms at both 615 and 665 nm with delays of 400 and 75 μs, respectively. Dose response curves were fitted using a hyperbolic equation and the data reported is the average of 3 independent experiments.
Compounds listed in Tables II below were tested in the above assay, and they are all active modulators of ERR1.

Structure (SMILES)	EC50 [nM]
O=C1N=C(N[C@H]2CN3CCC2CC3)S/C1=C\c1ccc2c(cnn2Cc2ccc(Cl)cc2C(F)(F)F)c1 [Compound 28, 2-(1-Aza-bicyclo[2.2.2]oct-3(R)-ylamino)-5-[1-(4-chloro-2-trifluoromethyl-benzyl)-1H-indazol-5-ylmethylene]-thiazol-4-one]	6
O=C1N=C(N[C@@H]2CN3CCC2CC3)S/C1=C\c1ccc2c(cnn2Cc2ccc(C(F)(F)F)cc2C(F)(F)F)c1 [Compound 29, 2-(1-Aza-bicyclo[2.2.2]oct-3(S)-ylamino)-5-[1-(2,4-bis-trifluoromethyl-benzyl)-1H-indazol-5-ylmethylene]-thiazol-4-one]	39
O=C1N=C(NCc2cncnc2)S/C1=C\c1ccc2c(cnn2Cc2ccc(C(F)(F)F)cc2C(F)(F)F)c1 [Compound 30, 5-[1-(2,4-Bis-trifluoromethyl-benzyl)-1H-indazol-5-ylmethylene]-2-[(pyrimidin-5-ylmethyl)-amino]-thiazol-4-one]	11
O=C1N=C(NCc2cncnc2)S/C1=C\c1ccc2c(cnn2Cc2ccc(Cl)cc2C(F)(F)F)c1 [Compound 32, 5-[1-(4-Chloro-2-trifluoromethyl-benzyl)-1H-indazol-5-ylmethylene]-2-[(pyrimidin-5-ylmethyl)-amino]-thiazol-4-one]	8.6
O=C1N=C(NCCC2CCOCC2)S/C1=C\c1ccc2c(cnn2Cc2ccc(C(F)(F)F)cc2C(F)(F)F)c1 [Compound 33, 5-[1-(2,4-Bis-trifluoromethyl-benzyl)-1H-indazol-5-ylmethylene]-2-[2-(tetrahydro-pyran-4-yl)-ethylamino]-thiazol-4-one]	260
Cc1nnc(CNC2=NC(=O)/C(=C/c3ccc4c(cnn4Cc4ccc(Cl)cc4C(F)(F)F)c3)S2)[nH]1 [Compound 35, 5-[1-(4-Chloro-2-trifluoromethyl-benzyl)-1H-indazol-5-ylmethylene]-2-[(5-methyl-4H-[1,2,4]triazol-3-ylmethyl)-amino]-thiazol-4-one]	11.2
O=C1N=C(NC(CO)CO)S/C1=C\c1ccc2c(cnn2Cc2ccc(Cl)cc2C(F)(F)F)c1 [Compound 38, 5-[1-(4-Chloro-2-trifluoromethyl-benzyl)-1H-indazol-5-ylmethylene]-2-(2-hydroxy-1-hydroxymethyl-ethylamino)-thiazol-4-one]	56.8
CN1CCN(CCNC2=NC(=O)/C(=C/c3ccc4c(cnn4Cc4ccc(Cl)cc4C(F)(F)F)c3)S2)CC1 [Compound 39, 5-[1-(4-Chloro-2-trifluoromethyl-benzyl)-1H-indazol-5-ylmethylene]-2-[2-(4-methyl-piperazin-1-yl)-ethylamino]-thiazol-4-one]	6.6
O=C1N=C(NCc2c[nH]nn2)S/C1=C\c1ccc2c(cnn2Cc2ccc(C(F)(F)F)cc2C(F)(F)F)c1 [Compound 43, 5-[1-(2,4-Bis-trifluoromethyl-benzyl)-1H-indazol-5-ylmethylene]-2-[(1H-[1,2,3]triazol-4-ylmethyl)-amino]-thiazol-4-one]	19
O=C1N=C(N[C@H]2CC[C@@H](C(=O)O)CC2)S/C1=C\c1ccc2c(cnn2Cc2ccc(Cl)cc2C(F)(F)F)c1 [Compound 44, (S,S)-4-{5-[1-(4-Chloro-2-trifluoromethyl-benzyl)-1H-indazol-5-ylmethylene]-4-oxo-4,5-dihydro-thiazol-2-ylamino}-cyclohexanecarboxylic acid]	15
O=C1N=C(N[C@@H]2CNC[C@H]2O)S/C1=C\c1ccc2c(cnn2Cc2ccc(Cl)cc2C(F)(F)F)c1 [Compound 47, (5Z)-5-({1-[4-Chloro-2-(trifluoromethyl)benzyl]-1H-indazol-5-yl}methylidene)-2-{[(3R,4R)-4-hydroxypyrrolidin-3-yl]amino}-1,3-thiazol-4(5H)-one]	37
CN1CCN(CCNC2=NC(=O)/C(=C/c3ccc4c(c3)c(I)nn4Cc3ccc(C(F)(F)F)cc3C(F)(F)F)S2)CC1 [Compound 48, 5-({1-[2,4-Bis(trifluoromethyl)benzyl]-3-iodo-1H-indazol-5-yl}methylidene)-2-{[2-(4-methylpiperazin-1-yl)ethyl]amino}-1,3-thiazol-4(5H)-one]	5

Other lines, results leading:

EC50 [nM]	Structure (SMILES)
37	NS(=O)(=O)CCNC1=NC(=O)/C(=C/c2ccc3c(cnn3Cc3ccc(C(F)(F)F)cc3C(F)(F)F)c2)S1 [Compound 31, 2-{5-[1-(2,4-Bis-trifluoromethyl-benzyl)-1H-indazol-5-ylmethylene]-4-oxo-4,5-dihydro-thiazol-2-ylamino}-ethanesulfonic acid amide]
30.8	O=C1N=C(NCCN2CCCC2=O)S/C1=C\c1ccc2c(cnn2Cc2ccc(C(F)(F)F)cc2C(F)(F)F)c1 [Compound 34, 5-[1-(2,4-Bis-trifluoromethyl-benzyl)-1H-indazol-5-ylmethylene]-2-[2-(2-oxo-pyrrolidin-1-yl)-ethylamino]-thiazol-4-one]
4.8	Cc1nnc(CNC2=NC(=O)/C(=C/c3ccc4c(cnn4Cc4ccc(C(F)(F)F)cc4C(F)(F)F)c3)S2)[nH]1 [Compound 36, 5-[1-(2,4-Bis-trifluoromethyl-benzyl)-1H-indazol-5-ylmethylene]-2-[(5-methyl-4H-[1,2,4]triazol-3-ylmethyl)-amino]-thiazol-4-one]
18	O=C(O)CCCNC1=NC(=O)/C(=C/c2ccc3c(cnn3Cc3ccc(Cl)cc3C(F)(F)F)c2)S1 [Compound 37, 4-{5-[1-(4-Chloro-2-trifluoromethyl-benzyl)-1H-indazol-5-ylmethylene]-4-oxo-4,5-dihydro-thiazol-2-ylamino}-butyric acid]
7.7	CNC(=O)CNC1=NC(=O)/C(=C/c2ccc3c(cnn3Cc3ccc(Cl)cc3C(F)(F)F)c2)S1 [Compound 41, 2-{5-[1-(4-Chloro-2-trifluoromethyl-benzyl)-1H-indazol-5-ylmethylene]-4-oxo-4,5-dihydro-thiazol-2-ylamino}-N-methyl-acetamide]
10	O=C1N=C(NCc2c[nH]nn2)S/C1=C\c1ccc2c(cnn2Cc2ccc(Cl)cc2C(F)(F)F)c1 [Compound 42, 5-[1-(4-Chloro-2-trifluoromethyl-benzyl)-1H-indazol-5-ylmethylene]-2-[(1H-[1,2,3]triazol-4-ylmethyl)-amino]-thiazol-4-one]
9.7	O=C1N=C(NC2(C(=O)O)CC2)S/C1=C\c1ccc2c(cnn2Cc2ccc(Cl)cc2C(F)(F)F)c1 [Compound 45, 1-{5-[1-(4-Chloro-2-trifluoromethyl-benzyl)-1H-indazol-5-ylmethylene]-4-oxo-4,5-dihydro-thiazol-2-ylamino}-cyclopropanecarboxylic acid]
22	O=C(O)CC(O)CNC1=NC(=O)/C(=C/c2ccc3c(cnn3Cc3ccc(Cl)cc3C(F)(F)F)c2)S1 (centres unmarked) [Compound 46, 4-{5-[1-(4-Chloro-2-trifluoromethyl-benzyl)-1H-indazol-5-ylmethylene]-4-oxo-4,5-dihydro-thiazol-2-ylamino}-3-hydroxy-butyric acid]
